Here are results for eight compounds from ChEMBL document CHEMBL1201862, “PubChem BioAssay data set” (2004).

Among the test systems are HT-29; NCI/ADR-RES; M14; SF-539; NCI-H522; HCT-15; U-251; K562; RXF 393; KM12; SK-MEL-28; SNB-19; HOP-92; LOX IMVI; MDA-MB-231; SR; A549; PC-3; MDA-MB-435; Hs-578T.
Holding throughout (experiment): growth of human tumour cells (NCI), 48 h

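Protocol summary: plate cells (96-well), add compound at 5 concentrations, incubate 48 h, interpolate endpoints linearly. The concentration for 50% growth inhibition is given as GI50.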 Active and inactive are the calls of the source. No stated cut-off is given here; in the data, active = GI50 up to about 1.1 µM and inactive = higher. Where a SMILES comes first, the peptide text is derived from it. The star is where a group is joined. Boc = CC(C)(C)OC(=O)*

In the case of `CN(C(=O)c1ccc2c(c1)sc1c(=O)n(C)c3ccccc3c12)c1ccccc1`, the GI50 in the assay on HT-29 is > 100 µM (inactive); with NCI/ADR-RES, > 100 µM (inactive); in the assay with M14 it was > 100 µM (inactive); with SF-539, > 100 µM (inactive); in the assay on NCI-H522 it was > 100 µM (inactive); with HCT-15 it was over 100 µM. Besides, the GI50 was 50 µM (inactive) in the assay with U-251; > 100 µM (inactive) with K562; > 100 µM (inactive) in the assay with RXF 393; > 100 µM (inactive) with KM12; > 100 µM (inactive) in the assay on SK-MEL-28; > 100 µM (inactive) in the assay with SNB-19. The GI50 with HOP-92, with LOX IMVI, in the assay on MDA-MB-231, in the assay with SR, in the assay with A549 and in the assay with PC-3 was > 100 µM (inactive) throughout. Moreover, the GI50 in the assay with MDA-MB-435 is > 100 µM (inactive).
Regarding `O=c1oc(-c2ccc(O)cc2)cc2cc(O)ccc12`, the GI50 is 19.7 µM (inactive) in the assay with NCI/ADR-RES; 24.2 µM (inactive) in the assay with M14; 32.2 µM (inactive) in the assay with SF-539; 25.8 µM (inactive) with NCI-H522; 43.2 µM with HCT-15; 13.2 µM (inactive) with K562. In addition, the GI50 was 23.5 µM (inactive) in the assay with RXF 393; 24.8 µM (inactive) with KM12; 20.6 µM (inactive) in the assay with SNB-19; 21.7 µM (inactive) with HOP-92; 41.5 µM (inactive) in the assay with A549; 23.6 µM (inactive) with Hs-578T. For the same compound, the GI50 is 25.3 µM (inactive) in the assay on PC-3 and 27.4 µM (inactive) in the assay with MDA-MB-435.
Consider `COc1cccc(C2c3cc4c(cc3OC(N3CCCC3)C2C)OCO4)c1OC` (stereo unspecified), for which the GI50 with HT-29 was 2.65 µM (inactive); with NCI/ADR-RES, 2.32 µM (inactive); with M14, 9.08 µM (inactive); in the assay on SF-539, 3.33 µM (inactive); with NCI-H522, 3.69 µM (inactive); with HCT-15, 2.25 µM. The GI50 in the assay on K562 is 3.17 µM (inactive); with KM12, 3.08 µM (inactive); in the assay on SNB-19 it was 1.58 µM (inactive); with LOX IMVI, 1.96 µM (inactive); in the assay on SR, 3.03 µM (inactive); in the assay with A549, 3.53 µM (inactive). For the same compound, the figures for the GI50 in the assay on Hs-578T, with PC-3 and in the assay with MDA-MB-435 were 1.59 µM (inactive), 4.48 µM (inactive) and 4.06 µM (inactive), respectively.
As to `C1CCCCC2(CCCCCCCCC3(CCC1)SCCS3)SCCS2`, the GI50 in the assay with HT-29 was > 100 µM (inactive); in the assay with NCI/ADR-RES, > 100 µM (inactive); with M14, > 100 µM (inactive); in the assay with SF-539, > 100 µM (inactive); with NCI-H522, > 100 µM (inactive); with HCT-15 it was over 100 µM. Moreover, the GI50 in the assay on U-251, in the assay on K562, in the assay on KM12, with SK-MEL-28, in the assay with SNB-19 and in the assay on HOP-92 was > 100 µM (inactive) each time. Also, the GI50 in the assay with LOX IMVI, with SR, in the assay with A549, in the assay with Hs-578T, in the assay on PC-3 and in the assay on MDA-MB-435 was > 100 µM (inactive) each time.
As to `COc1ccc(CCNCCCC2c3ccccc3-c3ccccc32)cc1OC`, the GI50 in the assay with HT-29 was 5.06 µM (inactive); in the assay with NCI/ADR-RES, 17.2 µM (inactive); with M14, 4.8 µM (inactive); in the assay on SF-539, 16.3 µM (inactive); in the assay on NCI-H522, 15.9 µM (inactive); with HCT-15, 14.8 µM. The GI50 in the assay on U-251 was 12.9 µM (inactive); in the assay with K562, 4.09 µM (inactive); with RXF 393, 11.3 µM (inactive); with KM12, 15.1 µM (inactive); in the assay with SK-MEL-28 it was 9.44 µM (inactive); with SNB-19, 16.7 µM (inactive). In addition, the GI50 is 5.71 µM (inactive) in the assay with HOP-92; 14.2 µM (inactive) in the assay on LOX IMVI; 8.22 µM (inactive) with SR; 16.1 µM (inactive) in the assay with A549; 20.1 µM (inactive) in the assay on Hs-578T; 16.3 µM (inactive) in the assay on PC-3. The GI50 in the assay with MDA-MB-435 was 14.7 µM (inactive).
For the compound `Cc1c(O)c(OC2OC(CO)C(O)C(O)C2O)cc2c1CC[C@@H]1C2(C)C(=O)C[C@]2(C)[C@@H]([C@@](C)(O)C(O)/C=C/C(C)(C)O)[C@H](O)C[C@@]12C` (stereo partly specified), the GI50 with HT-29 was > 100 µM (inactive); with NCI/ADR-RES it was > 100 µM (inactive); with M14, > 100 µM (inactive); with SF-539, > 100 µM (inactive); in the assay with NCI-H522 it was > 100 µM (inactive); in the assay on HCT-15, over 100 µM. Moreover, the GI50 in the assay with U-251, with K562, in the assay with RXF 393, with KM12, in the assay on SK-MEL-28 and in the assay on SNB-19 was > 100 µM (inactive) in each case. Besides, the GI50 in the assay on HOP-92, in the assay on LOX IMVI, with MDA-MB-231, in the assay with SR, in the assay on A549 and with PC-3 was > 100 µM (inactive) in each case. In addition, the GI50 with MDA-MB-435 was > 100 µM (inactive).
On to `N#C/C(=C\c1ccc2[nH]ccc2c1)C(=O)c1ccc(O)c(O)c1`, for which the GI50 was 69 µM (inactive) in the assay on HT-29; 49.4 µM (inactive) in the assay on NCI/ADR-RES; > 63.1 µM (inactive) in the assay on M14; > 57.4 µM (inactive) in the assay with SF-539; 29.4 µM (inactive) with NCI-H522; 51.4 µM in the assay with HCT-15. Besides, the GI50 was 41.6 µM (inactive) in the assay with U-251; 48.4 µM (inactive) in the assay with K562; > 94 µM (inactive) with RXF 393; > 100 µM (inactive) with KM12; > 100 µM (inactive) in the assay with SK-MEL-28; 50 µM (inactive) in the assay with SNB-19. Besides, the GI50 in the assay with HOP-92 was 53 µM (inactive); in the assay with LOX IMVI, 63.7 µM (inactive); in the assay on SR, 44.2 µM (inactive); in the assay with A549, > 57.7 µM (inactive); with Hs-578T it was 44.2 µM (inactive); in the assay on PC-3 it was > 100 µM (inactive). For the same compound, the GI50 in the assay on MDA-MB-435 was 71.8 µM (inactive).
In the case of `CC(NC(=O)C(NC(=O)OC(C)(C)C)C(C)C)C(=O)NCC(=O)O` (stereo not drawn) (Boc-Val-Ala-Gly-OH; configuration not given here), the GI50 with HT-29 was > 100 µM (inactive); in the assay on NCI/ADR-RES, > 100 µM (inactive); in the assay with M14, > 100 µM (inactive); in the assay on SF-539 it was > 100 µM (inactive); with NCI-H522, > 100 µM (inactive); in the assay with HCT-15 it was over 100 µM. Besides, the GI50 in the assay with U-251, in the assay on K562, in the assay with RXF 393, in the assay with KM12, with SK-MEL-28 and with SNB-19 was > 100 µM (inactive) in each case. The GI50 in the assay with HOP-92, in the assay on SR, in the assay with A549, with Hs-578T, with PC-3 and in the assay on MDA-MB-435 was > 100 µM (inactive) in each case.
